Earlier results in patent US11478425B2, “Extended release compositions comprising pyridostigmine” (priority 2017, dated 2022).

## CN(C)C(=O)Oc1ccc[n+](C)c1 [pyridostigmine]
NDA #020414
  bioavailability: 10-20%
oral
  elimination half-life: 3 to 5 h
  time-to-maximum peak plasma concentration: 1 to 2 h
